From article PMC10500001, “Dual hypoxia-responsive supramolecular complex for cancer target therapy” (Nature Communications, 2023)
Values joined by “and” are separate entries in the source; they are usually repeats but may differ in a detail not shown here. Identical values can stand only once.

Key:
[1] = Biosafety: blood routine and blood chemistry assays
Procedure: Toxic effects are a barrier to overcome before efficient deliverability can be achieved with BE.
For in vivo anticancer efficacy study, 1 × 10^6 PANC1 cells were injected subcutaneously into the right flanks of the BALB/c nude mice. To investigate the anticancer effects of SBE-β-CD@NMP-BE, the mice with tumor volumes at around 50 mm^3 were randomized into four groups (6 mice per group) and injected intravenously via tails with 200 μL of PBS, NMP-BE (5 mg/kg), SBE-β-CD (15 mg/kg) and NMP-BE@SBE-β-CD (20 mg/kg) every two days for 8 times and the tumor volumes for 14 days were continuously monitored. Tumor were measured by using a Vernier calipers and the volume (V) was calculated to be V = d^2 × D/2, where d is the shortest and the D is longest diameter of the tumor in mm respectively. […] Tumors were measured as mentioned above. To assess potential toxicities, mice were monitored for weight loss. Tumors were collected for H&E analysis and immunofluorescence staining. Major organs including heart, liver, spleen, lung, and kidney, were collected and stained with H&E for histopathologic analysis. To evaluate biosafety of SAC5A, blood samples were collected for blood chemistry assay and blood routine assay.

PANC1 cells = test: CCK8 cytotoxicity of SAC5A and SBE-β-CD, 24 h; assay type: cell-based, human; conditions: for cell viability: 24 h, in % (unit assumed)
Procedure: PANC1 cells (5 × 10^3 cells/well) were seeded into the 96-well plate and incubated overnight. They were treated with SAC5A or SBE-β-CD of different concentrations and incubated for 24 h under normoxic or hypoxic conditions, respectively. […] After a 6 h incubation under normoxic conditions, the culture medium was exchanged with fresh medium. Subsequently, the cells were incubated at 37 °C for 18 h under either normoxic or hypoxic conditions, respectively. And then, the culture medium was replaced with fresh medium and 10 μL cell counting kit-8 solution (C6005, US Everbright, Jiangsu, China). Following a 4 h incubation, the optical density was assessed at 450 nm employing a microplate reader.
Supplementary Figure 19. The cytotoxicity of SAC5A and SBE-β-CD. (a) Cell viability
Data are presented as mean ± SD (n = 6 biologically independent samples).

[2] = test system: PANC1 tumor-bearing BALB/c nude mice; test: In vivo anticancer effects of NMP and SAC5A; parameters: species or system mouse; conditions: for Tumor volume: Supplementary Fig.22a
Procedure: Supplementary Figure 22. […] (a) Average […]
presented as mean ± SD (n = 6 mice per group). P values are calculated by two-way […]
Data are presented as mean ± SD ( n = 6 biologically independent samples ). P values are calculated by one-way ANOVA with Turkey’s multiple comparisons test: ns: no […]
Note: (b) During the experiment, the tumor images were taken of PBS vs NMP, PBS vs SAC5A groups respectively. As the PBS group consisted of the same tumors, the tumor

[3] = test system: PANC1 tumor-bearing BALB/c nude mice; test: In vivo anticancer efficacy study of NMP-BE@SAC5A; parameters: species or system mouse; conditions: for Tumor volume: SAC5A 15, NMP-BE 5, NMP-BE@SAC5A 20 mg/kg iv
Description: After the tumor grows to a suitable size, the tumor was divided into small pieces and then subcutaneously inoculated into the right flank of other mice. After 10 d of inoculation, when the tumor volumes of mice were around 50 mm^3, PANC1-bearing BALB/c nude mice were separated randomly with a total of six mice in each group. […] On day 18 after injection, the mice were euthanized, and their tumors were collected. […] In addition, we also investigated the anticancer effects of NMP-BE@SBE-β-CD.
(§1) Tumors were measured as mentioned above.

[4] = Competitive fluorescence titration of RhB@SAC5A with NMP-BE; conditions: binding of SAC5A to NMP-BE, 1:1 competitive binding, PBS 10 mM pH 7.4, 25 °C
Procedure: Data are presented as mean ± SD (n = 3 biologically independent samples). Source data are provided as a Source Data file.
The complexation of SAC5A with NMP-BE was measured by competitive fluorescence titrations. A mixed solution containing known amounts of reporter dye (RhB), host (SAC5A) and competitive guest (NMP-BE) was injected into 2.50 mL RhB and SAC5A solution in a quartz cuvette. Care was taken to keep the concentrations of dye and SAC5A constant in the course of titrations. The fluorescence intensity was measured (λex = 554 nm for RhB) before the first addition and after every addition. The association constant was obtained by fitting fluorescence intensity (λem = 575 nm for RhB) according to a 1:1 competitive binding model. The fitting of data from direct titrations and competitive titrations was performed in a nonlinear manner, and the fitting modules were downloaded from the website of Prof. Nau’s group (http://www.jacobs-university.de/ses/wnau) under the column of “Fitting Functions”.

PANC1 tumor tissues = test: Histology of dissected tumors (H&E, TUNEL, Ki67); conditions: mouse, in vivo
Procedure: The hematoxylin-eosin (H&E) staining and terminal deoxynucleotidyl transferase dUTP nick end labeling (TUNEL) tests were next carried out to evaluate the cell pathology changes and apoptosis in the tumors of every groups. […] Meanwhile, we verified the effects of different treatments on cancer cell proliferation by immunofluorescence Ki67 staining.
as §1

O=S(=O)(O)c1ccc(/N=N/c2cc3c(O)c(c2)Cc2cc(/N=N/c4ccc(S(=O)(=O)O)cc4)cc(c2O)Cc2cc(/N=N/c4ccc(S(=O)(=O)O)cc4)cc(c2O)Cc2cc(/N=N/c4ccc(S(=O)(=O)O)cc4)cc(c2O)Cc2cc(/N=N/c4ccc(S(=O)(=O)O)cc4)cc(c2O)C3)cc1 [SAC5A, sulfonated azocalix[5]arene]
ALP ([1]; blood chemistry, individual mice 1-5, Fig.6h): 192.3 U/L and 155.8 U/L and 154.8 U/L and 192.1 U/L and 150.9 U/L | ALT ([1]; blood chemistry, individual mice 1-5, Fig.6i): 40 U/L and 44.1 U/L and 53.2 U/L and 59.2 U/L and 46 U/L | AST ([1]; blood chemistry, individual mice 1-5, Fig.6j): 141.2 U/L and 161.4 U/L and 172.2 U/L and 182.6 U/L and 148.2 U/L | CRE ([1]; blood chemistry, individual mice 1-5, Fig.6k): 141.2 µmol/L and 161.4 µmol/L and 172.2 µmol/L and 182.6 µmol/L and 148.2 µmol/L | BUN ([1]; blood chemistry, individual mice 1-5, Fig.6l): 8.3 mmol/L and 8.7 mmol/L and 6.3 mmol/L | RBC ([1]; blood routine, individual mice 1-5, Fig.6a): 10.0 1012/L and 9.2 1012/L and 9.1 1012/L and 11.1 1012/L and 11.2 1012/L | MCHC ([1]; blood routine, individual mice 1-5, Fig.6b): 305 g/L and 300 g/L and 301 g/L and 299 g/L and 308 g/L | HCT ([1]; blood routine, individual mice 1-5, Fig.6c): 51.8% and 49.2% and 51% and 53.8% and 50.9% | MCV ([1]; blood routine, individual mice 1-5, Fig.6d): 48.4 fL and 48.1 fL and 48.2 fL and 48.5 fL and 49.1 fL | PLT ([1]; blood routine, individual mice 1-5, Fig.6e): 11.4 1011/L and 11.8 1011/L and 10.7 1011/L and 11.5 1011/L and 12.0 1011/L | RDW ([1]; blood routine, individual mice 1-5, Fig.6f): 14.3% and 14.9% and 13.6% and 13.3% | MPV ([1]; blood routine, individual mice 1-5, Fig.6g): 5.3 fL and 5.4 fL and 6 fL and 5.5 fL | RBC, MCHC, HCT, MCV, PLT, RDW, MPV, ALP, ALT, AST, CRE, BUN levels versus PBS group ([1]; one-way ANOVA): no significance | RBC, MCHC, HCT, MCV, PLT, RDW, MPV values ([1]; treated mice): small alteration | cell viability (PANC1 cells; PANC1, Hypoxia, 10 μM): 101.91 and 106.97 and 106.87 and 103.95 and 95.76 and 94.38 | cell viability (PANC1 cells; PANC1, Hypoxia, 20 μM): 98.99 and 105.90 and 107.51 and 100.07 and 96.78 and 98.26 | cell viability (PANC1 cells; PANC1, Hypoxia, 40 μM): 96.62 and 103.74 and 107.19 and 94.57 and 95.43 and 98.62 | cell viability (PANC1 cells; PANC1, Hypoxia, 100 μM): 89.44 and 102.24 and 97.97 and 93.46 and 97.47 and 88.44 | cell viability (PANC1 cells; PANC1, Hypoxia, 200 μM): 96.47 and 99.73 and 95.34 and 92.70 and 90.07 and 95.59 | cell viability (PANC1 cells; PANC1, Hypoxia, 400 μM): 98.35 and 96.22 and 97.85 and 103.12 and 92.08 and 92.95 | cell viability (PANC1 cells; PANC1, Normoxia, 10 μM): 94.32 and 96.61 and 94.68 and 98.32 and 94.21 and 96.48 | cell viability (PANC1 cells; PANC1, Normoxia, 20 μM): 92.78 and 88.19 and 94.36 and 97.85 and 97.21 and 107.50 | cell viability (PANC1 cells; PANC1, Normoxia, 40 μM): 88.98 and 89.46 and 94.68 and 94.21 and 93.73 and 87.87 | cell viability (PANC1 cells; PANC1, Normoxia, 100 μM): 86.69 and 92.80 and 86.44 and 99.65 and 91.72 and 99.02 | cell viability (PANC1 cells; PANC1, Normoxia, 200 μM): 96.38 and 94.98 and 93.23 and 105.44 and 89.58 and 94.49 | cell viability (PANC1 cells; PANC1, Normoxia, 400 μM): 90.21 and 94.16 and 91.97 and 97.63 and 95.37 and 92.10 | cytotoxicities (PANC1 cells; PANC1 cells, 10 μM to 0.40 mM, normoxic and hypoxic): negligible | Tumor volume ([2]; day 0, individual mice (n=6)): 39.34 mm3 and 42.10 mm3 and 36.90 mm3 and 42.16 mm3 | Tumor volume ([2]; day 2, individual mice (n=6)): 46.70 mm3 and 75.90 mm3 and 48.08 mm3 and 55.90 mm3 | Tumor volume ([2]; day 4, individual mice (n=6)): 55.83 mm3 and 118.84 mm3 and 75.42 mm3 and 64.80 mm3 | Tumor volume ([2]; day 6, individual mice (n=6)): 73.60 mm3 and 175.66 mm3 and 110.64 mm3 and 99.97 mm3 | Tumor volume ([2]; day 8, individual mice (n=6)): 97.53 mm3 and 181.96 mm3 and 126.04 mm3 and 134.13 mm3 | Tumor volume ([2]; day 10, individual mice (n=6)): 142.07 mm3 and 265.92 mm3 and 173.37 mm3 and 226.57 mm3 | Tumor volume ([2]; day 12, individual mice (n=6)): 165.62 mm3 and 298.12 mm3 and 264.30 mm3 and 338.22 mm3 | Tumor volume ([2]; day 14, individual mice (n=6)): 268.77 mm3 and 498.25 mm3 and 328.38 mm3 and 404.85 mm3 | Tumor volume ([2]; day 16, individual mice (n=6)): 387.44 mm3 and 789.47 mm3 and 472.22 mm3 and 693.97 mm3 | Tumor volume ([2]; day 18, individual mice (n=6)): 532.86 mm3 and 970.26 mm3 and 525.48 mm3 and 748.96 mm3 | Tumor weight ([2]; individual mice (n=6), Supplementary Fig.22c): 306.9 mg and 287.7 mg and 279.3 mg and 561.1 mg and 306.5 mg and 287.3 mg | Mice weight ([3]; Day 0, single mouse): 18.5 g and 17.7 g and 16.0 g and 18.0 g and 17.5 g and 16.6 g | Tumor volume ([3]; Day 0, single mouse): 39.34 mm3 and 42.10 mm3 and 36.90 mm3 and 42.16 mm3 and 42.33 mm3 and 56.35 mm3 | Mice weight ([3]; Day 2, single mouse): 14.6 g and 16.5 g and 17.5 g and 17.9 g and 18.5 g and 17.6 g | Tumor volume ([3]; Day 2, single mouse): 46.70 mm3 and 75.90 mm3 and 48.08 mm3 and 55.90 mm3 and 59.70 mm3 and 76.08 mm3 | Tumor volume ([3]; Day 4, single mouse): 55.83 mm3 and 118.84 mm3 and 75.42 mm3 and 64.80 mm3 and 72.81 mm3 and 104.25 mm3 | Mice weight ([3]; Day 6, single mouse): 16.3 g and 16.8 g and 17.8 g and 19.4 g and 19.1 g | Tumor volume ([3]; Day 6, single mouse): 73.60 mm3 and 175.66 mm3 and 110.64 mm3 and 99.97 mm3 and 116.56 mm3 and 152.05 mm3 | Mice weight ([3]; Day 8, single mouse): 16.1 g and 19.1 g and 16.0 g and 17.6 g and 17.1 g and 18.7 g | Tumor volume ([3]; Day 8, single mouse): 97.53 mm3 and 181.96 mm3 and 126.04 mm3 and 134.13 mm3 and 98.89 mm3 and 192.89 mm3 | Mice weight ([3]; Day 10, single mouse): 15.8 g and 18.5 g and 15.6 g and 17.5 g and 16.4 g and 18.7 g | Tumor volume ([3]; Day 10, single mouse): 142.07 mm3 and 265.92 mm3 and 173.37 mm3 and 226.57 mm3 and 159.78 mm3 and 251.75 mm3 | Mice weight ([3]; Day 12, single mouse): 16.5 g and 19.0 g and 16.2 g and 18.3 g and 16.3 g and 18.5 g | Tumor volume ([3]; Day 12, single mouse): 165.62 mm3 and 298.12 mm3 and 264.30 mm3 and 338.22 mm3 and 196.07 mm3 and 282.53 mm3 | Mice weight ([3]; Day 14, single mouse): 16.0 g and 18.0 g and 16.1 g and 18.7 g and 16.4 g and 16.2 g | Tumor volume ([3]; Day 14, single mouse): 268.77 mm3 and 498.25 mm3 and 328.38 mm3 and 404.85 mm3 and 346.37 mm3 and 404.41 mm3 | Mice weight ([3]; Day 16, single mouse): 16.6 g and 18.4 g and 19.3 g and 16.3 g and 19.7 g | Tumor volume ([3]; Day 16, single mouse): 387.44 mm3 and 789.47 mm3 and 472.22 mm3 and 693.97 mm3 and 504.38 mm3 and 616.16 mm3 | Mice weight ([3]; Day 18, single mouse): 16.3 g and 17.8 g and 17.5 g and 16.2 g and 19.7 g | Tumor volume ([3]; Day 18, single mouse): 532.86 mm3 and 970.26 mm3 and 525.48 mm3 and 748.96 mm3 and 671.75 mm3 and 704.93 mm3 | anticancer effect ([3]; PANC1-bearing BALB/c nude mice, iv every other day, 18 days): no anticancer effect | Tumor weight ([3]; day mice were sacrificed (day 18), single mouse): 287.7 mg and 279.3 mg and 561.1 mg and 306.5 mg and 287.3 mg and 306.9 mg | Ka [4]: (5.1 ± 0.5) × 10^6 M^−1 | TUNEL apoptosis in tumors (PANC1 tumor tissues): negligible apoptosis
